Test results published in publication PMC7343857, “New natural agonists of the transient receptor potential Ankyrin 1 (TRPA1) channel” (Scientific Reports, 2020).
Like-named read-outs stand apart in the source and are kept apart here.

Target: T1, hTRPA1 (Homo sapiens, UniProt O75762)
T1 construct: gene TRPA1
Assay: ratiometric calcium imaging and whole-cell patch clamp in CHO cells with inducible hTRPA1; non-induced cells as control
Type: cell-based

T1 sequence (O75762 whole entry): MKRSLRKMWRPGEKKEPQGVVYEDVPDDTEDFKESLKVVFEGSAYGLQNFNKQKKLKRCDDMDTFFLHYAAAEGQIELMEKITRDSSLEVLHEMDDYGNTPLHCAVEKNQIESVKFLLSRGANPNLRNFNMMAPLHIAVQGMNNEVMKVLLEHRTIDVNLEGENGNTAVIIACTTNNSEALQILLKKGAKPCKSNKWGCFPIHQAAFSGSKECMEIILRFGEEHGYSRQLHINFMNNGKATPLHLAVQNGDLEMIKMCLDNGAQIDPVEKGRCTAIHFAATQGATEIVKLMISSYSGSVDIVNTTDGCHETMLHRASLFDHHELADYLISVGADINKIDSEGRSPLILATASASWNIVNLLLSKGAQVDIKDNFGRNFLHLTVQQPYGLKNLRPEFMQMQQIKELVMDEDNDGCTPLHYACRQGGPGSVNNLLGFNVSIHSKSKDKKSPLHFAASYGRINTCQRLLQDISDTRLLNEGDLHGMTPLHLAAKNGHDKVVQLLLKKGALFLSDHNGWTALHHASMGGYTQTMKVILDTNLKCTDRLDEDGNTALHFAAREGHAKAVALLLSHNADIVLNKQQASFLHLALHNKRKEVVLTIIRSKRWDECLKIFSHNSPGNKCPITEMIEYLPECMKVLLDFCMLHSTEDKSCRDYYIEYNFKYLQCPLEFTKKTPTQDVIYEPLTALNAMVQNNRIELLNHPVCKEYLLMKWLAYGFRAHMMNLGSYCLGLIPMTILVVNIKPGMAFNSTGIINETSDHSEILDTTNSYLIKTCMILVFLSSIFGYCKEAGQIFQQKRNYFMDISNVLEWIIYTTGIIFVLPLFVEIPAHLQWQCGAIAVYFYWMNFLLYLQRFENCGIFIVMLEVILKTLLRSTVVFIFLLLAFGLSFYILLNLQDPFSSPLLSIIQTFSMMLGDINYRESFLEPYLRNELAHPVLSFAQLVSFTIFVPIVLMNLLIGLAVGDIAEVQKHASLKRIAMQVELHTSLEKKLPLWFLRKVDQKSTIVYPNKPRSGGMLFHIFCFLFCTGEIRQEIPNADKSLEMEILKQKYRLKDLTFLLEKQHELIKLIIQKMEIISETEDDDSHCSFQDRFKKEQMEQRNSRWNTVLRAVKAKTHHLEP

| SMILES | EC50 (read-out: EC50) | EC50 |
| --- | --- | --- |
| CC(C)c1ccc(C=O)cc1 [cuminaldehyde] | 720 µM | – |
| COc1ccc(C=O)cc1 [p-anisaldehyde] | – | 910 µM |
| C/C=C(\C)C=O [tiglic aldehyde] | 1490 µM | – |
